# Measurements: ChEMBL document CHEMBL3301361, “Experimental in vitro DMPK and physicochemical data on a set of publicly disclosed compounds”
# Experiments:
# in vitro = details: human, plasma, PPB
# physchem [1] = details: octan-1-ol/water
# physchem [2] = details: pH 7.4 buffer
SMILES,fraction unbound at 5 h (in vitro),"logD (physchem [1]; pH 7.4, LogD7.4)",solubility thermodynamic (physchem [2]) [µM],logD (physchem [1]; pH 7.4)
Fc1ccc(-c2c3cccc(C(F)(F)F)c3nn2Cc2ccc(F)cc2Cl)cc1 [LXR-623],0.0006,–,–,–
CN(C)CCNC(=O)c1ccc(Nc2ncc3cc(-c4ccncc4)ccc3n2)cc1,0.0111,–,–,–
COc1cccc(OC)c1OCCNCC1COc2ccccc2O1 (stereo not drawn),0.024,–,–,–
Cc1cccc(Nc2nc(NCc3ccco3)c3ccccc3n2)c1,0.0007,–,–,–
COc1cnc(-c2ccccn2)nc1N1CCOCC1,0.339,–,–,–
COc1ccc2c(c1)N(CCN1CCC(NCc3cc4c(cn3)OCCO4)CC1)C(=O)CS2,0.0948,–,–,–
Nc1ccc(S(=O)(=O)Nc2ccnn2-c2ccccc2)cc1 [SULFAPHENAZOLE],0.0059,–,–,–
COc1ccc2ncc(=O)n(CCN3CC[C@@H](NCc4cc5c(cn4)OCCO5)[C@@H](O)C3)c2c1,0.142,–,–,–
C[C@H](Nc1ncc(Cl)c(Nc2cc(C3CC3)[nH]n2)n1)c1ncc(F)cn1,0.0568,–,–,–
O=C1NCCc2[nH]c(-c3ccncc3)cc21,0.586,–,–,–
O=C(Nc1ccccc1)c1ccc(OCCCN2CCCC2)cc1OCc1ccccc1F,–,3.85,141,–
COc1ccc(Cl)cc1NC(=O)Nc1cnccn1,–,3.63,0.7,–
Cc1ncc(-c2ccnc(Nc3ccc(S(=O)(=O)CCCN4CCOCC4)cc3)n2)n1C(C)C,–,2.43,851,–
Cc1ncc(-c2ccnc(Nc3ccc(F)cc3)n2)n1C(C)C,–,3.62,107,–
C[C@@H]1CN(c2nc(N3CCOCC3)c3ccc(Nc4ccccc4)nc3n2)C[C@H](C)O1,–,4.12,1.4,–
CCN(CC)C(=O)c1ccc2[nH]c(-c3cc(C)cc(C)c3)c(CCNCCCCc3ccncc3)c2c1,–,3.3,871,–
O=C(N[C@@H](Cc1ccc(OCCNc2nc3ccccc3[nH]2)cc1)C(=O)O)c1c(Cl)cccc1Cl,–,0.6,324,–
Cn1cnc(-c2ccccc2)c1C#Cc1ccnc(N)n1,–,2.94,17,–
Cc1ncc(-c2ccc([C@H]3CC[C@H](CC(=O)O)CC3)cc2)nc1C(N)=O,–,1,372,–
CCn1cc(NC(=O)Cc2ccc(Oc3ccnc4cc(OC)c(OC)cc34)cc2OC)cn1,–,3.42,22.9,–
Cc1nc2ccc(Cl)cn2c1-c1ccnc(N)n1,–,2.49,759,–
COc1cc(C(=O)N2CCOCC2)ccc1Nc1ncc(Cl)c(-c2cnc3ccccn23)n1,–,3.4,1.6,–
COc1cc2ncnc(Nc3ccc(F)c(Cl)c3)c2cc1OCCN1CCN(C)CC1,–,3.3,64.6,–
CC(C)(C)c1cc2nc3c(c(O)n2n1)CN(Cc1ccccc1)C3=O,–,1.9,25.1,–
O=C(Cn1cnc2ccccc21)c1ccc(Br)cc1,–,3.22,129,–
CN(C)C(=O)[C@H](Cc1ccccc1)NC(=O)c1cc2cc(F)ccc2[nH]1,–,3.5,3.6,–
CCN(CCO)CCCOc1cc2ncnc(Nc3cc(CC(=O)Nc4cccc(F)c4F)[nH]n3)c2cc1OC,–,1.94,3,–

SMILES,fraction unbound at 5 h (in vitro),"logD (physchem [1]; pH 7.4, LogD7.4)",solubility thermodynamic (physchem [2]) [µM],logD (physchem [1]; pH 7.4)
O=C(N[C@@H](Cc1ccc(OCCc2ccc3c(n2)NCCC3)cc1)C(=O)O)c1c(Cl)cccc1Cl,–,0.33,107,–
Cc1cc(C)cc(-c2[nH]c3sc(C(C)(C)C(=O)N4C5CCC4CC5)cc3c2CCN2CCN(CC(=O)N(C)C)CC2)c1,–,4.13,100,–
Oc1ncnc2scc(-c3ccsc3)c12,–,2.25,178,–
CC(C)Cn1cnc(-c2ccccc2)c1-c1nc2c(N)ncnc2s1,–,3.72,70.8,–
CN(C(=O)c1ccncc1)C1CCN(CCC(c2ccccc2)c2ccccc2)CC1,–,2.8,537,–
CCOC(=O)N1CCN(C(=O)[C@H](Cc2cccc(C(=N)N)c2)NS(=O)(=O)c2c(C(C)C)cc(C(C)C)cc2C(C)C)CC1,–,1.67,692,–
CC(=O)[C@H]1CC[C@H]2[C@@H]3CCC4=CC(=O)CC[C@]4(C)[C@H]3CC[C@]12C [PROGESTERONE],–,–,37.2,3.94
CCn1c(SCC(=O)Nc2c(C#N)cnn2-c2ccccc2)nnc1-c1cccs1,–,2.1,14.1,–
COc1ccc(C(=O)C2CCN(C(=O)c3ccco3)CC2)cc1,–,2.42,380,–
CCOC(=O)Nc1ccc2c(c1)N(C(=O)CCN1CCOCC1)c1ccccc1S2 [MORICIZINE],–,3.1,83.2,–
O=C1NC(=O)C(Cc2cccc(Oc3ccccc3)c2)S1 (stereo not drawn),–,2.84,339,–
CC(=O)N1CCN(c2ccc(Nc3nccc(-c4cnc(C)n4C(C)C)n3)cc2)CC1,–,2.39,148,–
CC(=O)N1CCN(c2ccc(Nc3nccc(-c4cnc5ccccn45)n3)cc2)CC1,–,2.82,8.5,–
Cc1nc(C)c(-c2ccc3c(c2)CC[C@]32CC[C@@H](Cc3nnn[nH]3)CC2)nc1C(N)=O,–,2,77.6,–
CS(=O)(=O)c1ccc(C(=O)Nc2ccc(F)cc2)c[n+]1[O-],–,0.84,219,–
CC1CN(C(=O)c2ccccc2)c2ccccc2NC1=O (stereo not drawn),–,1.73,1200,–
c1ccc(Nc2ccnc3ccccc23)cc1,–,2.78,324,–
O=C(O)C[C@@H]1c2ccccc2C[C@H]1NC(=O)c1cc2sc(Cl)c(Cl)c2[nH]1,–,2.53,1510,–
O=C(CS(=O)(=O)c1ccccc1)c1ccccc1,–,1.86,234,–
Nc1ncnc2c1C(=O)N(c1ccc([C@H]3CC[C@H](CC(=O)O)CC3)cc1)CCO2 [PF-04620110],–,-0.5,759,–
COc1ccc(-c2cc3c(N[C@H]4CCCNC4)ncc(C(N)=O)c3s2)cc1,–,1.82,1050,–
COc1cc2ncnc(Nc3ccc(F)c(Cl)c3)c2cc1OC,–,3.67,7.2,–
O=C(CO)N1CCC(c2[nH]nc(-c3ccc(Cl)cc3)c2-c2ccncn2)CC1 [SD-0006],–,1.85,60.3,–
CCCSc1nc(N2CCOCC2)ccc1C(=O)N[C@H]1C2CC3CC1C[C@](O)(C3)C2,–,3.2,479,–
CC12CCC(=O)C=C1CCC1C2CCC2(C)C(O)CCC12 (stereo not drawn),–,–,40.7,3.3
Cc1cccc(C[C@H](NC(=O)c2cc(C(C)(C)C)nn2C)C(=O)NCC#N)c1,–,3.1,63.1,–
COc1cc(CO)cc(N(C)c2ccnc(Nc3cc(N4CCOCC4)cc(N4CCOCC4)c3)n2)c1,–,3,195,–

SMILES,fraction unbound at 5 h (in vitro),"logD (physchem [1]; pH 7.4, LogD7.4)",solubility thermodynamic (physchem [2]) [µM],logD (physchem [1]; pH 7.4)
Cc1nc(C)c(-c2ccc([C@H]3CC[C@@H](CC(=O)O)CC3)c(Cl)c2)nc1C(N)=O,–,1.7,200,–
COc1ccc(CNCc2ccc(-c3cc(C(N)=O)c(NC(N)=O)s3)cc2)cc1,–,2.55,11.5,–
CC(=O)Nc1nc(-c2cccs2)cs1,–,–,100,2.77
Oc1ccc(-c2nc3ccccc3s2)cc1,–,4.1,7.9,–
CCCSc1ncccc1C(=O)N(C)C1CCCCC1,–,3.36,955,–
Cc1ccc(C(=O)Nc2ccon2)cc1-n1cnc2ccc(N3CCN(C)CC3)cc2c1=O,–,1.87,57.5,–
Clc1n[nH]c2cccc(Nc3ccnc(Nc4cc(N5CCOCC5)cc(N5CCOCC5)c4)n3)c12,–,2.78,5.1,–
C[C@@H](Oc1cccc2ncnc(Nc3ccc4c(cnn4Cc4ccccn4)c3)c12)C(=O)N(C)C,–,2.89,295,–
CC1(C)N=C(N)N=C(N)N1c1ccc(Oc2ccc(Cl)cc2)c(Cl)c1,–,0.79,372,–
Cc1sc(N)nc1-c1ccccc1,–,2.75,955,–
O=C(Nc1ncc(F)s1)[C@H](CC1CCOCC1)c1ccc(S(=O)(=O)C2CC2)cc1,–,3.19,214,–
Cc1cc(C)cc(-c2[nH]c3ccc(C(C)(C)C(=O)N4C5CCC4CC5)cc3c2CCNCCCCc2ccncc2)c1,–,4.3,35.5,–
COc1cc2c(NC(=O)Nc3c(Cl)cccc3Cl)ncnc2cc1OCC1CCN(C)CC1,–,2.7,10,–
CC1(C)C(=O)N(c2ccc(SC(F)(F)F)cc2)C(=O)N1Cc1ccnc(N2CCOCC2)c1,–,3.73,3,–
Cc1ccc2nc(NCCN)c3ncc(C)n3c2c1 [BMS-345541],–,0.88,246,–
CC(=O)Nc1ccc(C(=O)Nc2ccccc2N)cc1 [TACEDINALINE],–,0.82,631,–
Nc1ncnc2c1ncn2Cc1ccccc1 [9-BENZYL-9H-ADENINE],–,1.53,246,–
Cn1c(=O)n(Cc2ccc(C(=O)O)cc2)c(=O)c2cc(C#CCc3ccccc3)ccc21,–,2.5,3,–
Cc1ncc(C(N)=O)nc1-c1ccc([C@H]2CC[C@H](C(=O)O)CC2)cc1,–,0.22,1230,–
CNc1cccc(CCOc2ccc(C[C@H](NC(=O)c3ccccc3Cl)C(=O)O)cc2)n1,–,-0.31,398,–
Cc1ccc(CO)cc1N(C)c1ccnc(Nc2cc(N3CCOCC3)nc(N3CCOCC3)c2)n1,–,3.44,39.8,–
COc1cc2ncnc(Nc3cc(NC(=O)c4ccnc(N5CCOCC5)c4)ccc3C)c2cc1OCCN1CCOCC1,–,3.19,66.1,–
CN(C)CC(O)COc1ccc(Nc2nccc(Nc3ccccc3C#N)n2)cc1 (stereo not drawn),–,1.2,1100,–
COc1cc2c(Nc3ccc(Br)cc3F)ncnc2cc1OC[C@@H]1CCCN(C)C1,–,3.05,170,–
Cc1nc(C)c(-c2ccc([C@H]3CC[C@H](CCC(=O)O)CC3)cc2)nc1C(N)=O,–,1.6,200,–
